# *1 amine or outer side, *2 acyl side, *3 side chain or, on linkers, in order; H or OH if unused. Where a SMILES comes first, the peptide text is derived from it. Bridges are numbered along the chain shown (N, C = ends). Side-chain parts run from the residue outwards. [ ]: non-standard residue; d: D form. The star is where a group is joined. C20 diacid = O=C(O)CCCCCCCCCCCCCCCCCCC(=O)*; γGlu = O=C(O)[C@H](CCC(=O)[*:2])N[*:1]; AEEA = NCCOCCOCC(=O)O; Aib = CC(C)(N)C(=O)O
# Molecular target: T1, human GLP-1 receptor (GLP-1R) (Homo sapiens, UniProt P43220)
# T1 construct: expressed in transfected cells
# Assay: cAMP accumulation assay, CHO-K1 cells stably expressing human GLP-1R
# Format: cell-based
# Conditions: cAMP accumulation, mean pEC50, Table 10
# Protocol: In the presence of the non-specific cAMP/cGMP phosphodiesterase inhibitor, 3-isobutyl-1-methylxanthine (IBMX), accumulating cAMP can be measured in vitro using common detection methods. Thus, it is possible to estimate an in vitro potency (pEC50) for peptides activating each of these receptors using fit dose-response curves for cAMP accumulation.
# CHO-K1 cells stably expressing human GLP-1R (Genebank accession #NM_002062) were grown in 90% F12-K media supplemented with 10% FBS and 250 μg/ml G418.
# On day 1, CHO-K1 cells were plated at 1.5 million cells per T75 flask in 90% F12-K media supplemented with 10% FBS. On day 3 cells were transfected with 40 mcg of each expression plasmid using Lipofectamine 2000 transfection reagent. On day 5, cells were dispensed at 1000 cells per well in white 384-well OptiPlates in 5 mcL of assay buffer consisting of 1×HBSS, 5 mM HEPES, 0.5 mM IBMX, and 0.1% casein.
# Peptides were serially diluted 4-fold in assay buffer to final concentrations ranging from 1×10^−9 M to 9.5×10^−16 M. Two assay controls consisting of 50 mcM forskolin (cAMP system maximum) or assay buffer only (cAMP system minimum) were also prepared. Five microliters of each peptide-concentration, or assay control, was added to triplicate wells and incubated for thirty minutes at room temperature. During this incubation step a 4× europium labelled cAMP tracer solution and a 4× Ulight®-anti-cAMP solution (consisting of an anti-cAMP monoclonal antibody labelled with Ulight™ dye) was prepared according to the manufacturer's protocol (PerkinElmer LANCE Ultra cAMP kit). Following this incubation, 5 mcL europium labelled cAMP and 5 mcL Ulight anti-cAMP antibody was added to each well. The plate was covered to prevent evaporation and incubated for 60 minutes at room temperature in the dark. Plates were read on an Envision fluorescent plate reader (PerkinElmer).
# Test values were first normalized to the system maximum and system minimum averaged values in Excel using the formula: (test value−system min average)/(system max average -system min average)*100. Normalized test values represent a baseline corrected percentage of the system maximum cAMP response induced by forskolin. Data from up to 3 replicate tests were analyzed for each peptide. Potency values were estimated using GraphPad Prism software (v7.04) by fitting data to a 4-parameter logistic curve model: Y=Bottom+(Top−Bottom)/(1+10^((LogEC50−X))). The Hill slope was constrained to 1.0. EC50 values were converted to pEC50 values using the formula: pEC50=−Log (EC50).
# T1 sequence (P43220 24-463): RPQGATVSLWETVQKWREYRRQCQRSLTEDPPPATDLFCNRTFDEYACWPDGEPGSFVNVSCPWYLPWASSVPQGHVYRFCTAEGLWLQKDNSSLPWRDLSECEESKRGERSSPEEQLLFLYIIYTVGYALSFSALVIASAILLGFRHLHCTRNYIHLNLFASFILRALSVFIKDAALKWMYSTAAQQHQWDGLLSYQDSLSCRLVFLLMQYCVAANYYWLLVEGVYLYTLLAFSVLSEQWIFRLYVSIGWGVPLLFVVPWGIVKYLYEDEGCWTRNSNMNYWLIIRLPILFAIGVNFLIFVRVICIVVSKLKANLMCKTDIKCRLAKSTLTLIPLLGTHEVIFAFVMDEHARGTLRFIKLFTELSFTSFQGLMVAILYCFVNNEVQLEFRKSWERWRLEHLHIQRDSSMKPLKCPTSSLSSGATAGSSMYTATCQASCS
row,SMILES,EC50 [nM]
1,CC(C)C[C@H](NC(=O)[C@H](Cc1ccc(O)cc1)NC(=O)[C@H](CCCCN)NC(=O)[C@H](CO)NC(=O)[C@H](Cc1ccc(O)cc1)NC(=O)[C@H](CC(=O)O)NC(=O)[C@H](CO)NC(=O)[C@@H](NC(=O)[C@H](Cc1ccccc1)NC(=O)[C@@H](NC(=O)CNC(=O)[C@H](Cc1c[nH]cn1)NC(=O)[C@H](CO)NC(=O)[C@@H](N)Cc1ccc(O)cc1)[C@@H](C)O)[C@@H](C)O)C(=O)N[C@@H](CC(=O)O)C(=O)N[C@@H](CCCCNC(=O)CC[C@H](NC(=O)CC[C@H](NC(=O)COCCOCCNC(=O)CCCCCCCCCCCCCCCCCCC(=O)O)C(=O)O)C(=O)O)C(=O)N[C@@H](CCCCN)C(=O)N[C@@H](Cc1ccc(O)cc1)C(=O)N[C@@H](C)C(=O)N[C@@H](CCC(N)=O)C(=O)N[C@@H](CCC(=O)O)C(=O)N[C@@H](Cc1ccccc1)C(=O)N[C@H](C(=O)NC(C)(C)C(=O)N[C@@H](Cc1c[nH]c2ccccc12)C(=O)N[C@@H](CC(C)C)C(=O)N[C@@H](CCC(=O)O)C(=O)N[C@@H](CCC(=O)O)C(=O)N[C@@H](CCC(=O)O)C(=O)N1CCC[C@H]1C(=O)N[C@@H](CO)C(=O)N[C@@H](CO)C(=O)NCC(=O)N[C@@H](C)C(=O)N1CCC[C@H]1C(=O)N1CCC[C@H]1C(=O)N1CCC[C@H]1C(=O)N[C@@H](CO)C(=O)O)C(C)C [Compound A15] (H-YSHGTFTSDYSKYLDK([γGlu-γGlu-AEEA-C20 diacid])KYAQEFV[Aib]WLEEEPSSGAPPPS-OH),> 1
2,CC(C)C[C@H](NC(=O)[C@H](Cc1ccc(O)cc1)NC(=O)[C@H](CCCCN)NC(=O)[C@H](CO)NC(=O)[C@H](Cc1ccc(O)cc1)NC(=O)[C@H](CC(=O)O)NC(=O)[C@H](CO)NC(=O)[C@@H](NC(=O)[C@H](Cc1ccccc1)NC(=O)[C@@H](NC(=O)CNC(=O)[C@H](Cc1c[nH]cn1)NC(=O)[C@H](CO)NC(=O)[C@@H](N)Cc1ccc(O)cc1)[C@@H](C)O)[C@@H](C)O)C(=O)N[C@@H](CC(=O)O)C(=O)N[C@@H](CCCCNC(=O)CC[C@H](NC(=O)CC[C@H](NC(=O)COCCOCCNC(=O)CCCCCCCCCCCCCCCCCCC(=O)O)C(=O)O)C(=O)O)C(=O)N[C@@H](CCCCN)C(=O)N[C@@H](Cc1ccc(O)cc1)C(=O)N[C@@H](C)C(=O)N[C@@H](CCC(N)=O)C(=O)N[C@@H](CCC(=O)O)C(=O)N[C@@H](Cc1ccccc1)C(=O)N[C@H](C(=O)NC(C)(C)C(=O)N[C@@H](Cc1c[nH]c2ccccc12)C(=O)N[C@@H](CC(C)C)C(=O)N[C@@H](CCC(=O)O)C(=O)N[C@@H](CC(N)=O)C(=O)N[C@@H](CCC(=O)O)C(=O)N1CCC[C@H]1C(=O)N[C@@H](CO)C(=O)N[C@@H](CO)C(=O)NCC(=O)N[C@@H](C)C(=O)N1CCC[C@H]1C(=O)N1CCC[C@H]1C(=O)N1CCC[C@H]1C(=O)N[C@@H](CO)C(=O)O)C(C)C [Compound A16] (H-YSHGTFTSDYSKYLDK([γGlu-γGlu-AEEA-C20 diacid])KYAQEFV[Aib]WLENEPSSGAPPPS-OH),> 1
3,CC(C)C[C@H](NC(=O)[C@H](Cc1ccc(O)cc1)NC(=O)[C@H](CCCCN)NC(=O)[C@H](CO)NC(=O)[C@H](Cc1ccc(O)cc1)NC(=O)[C@H](CC(=O)O)NC(=O)[C@H](CO)NC(=O)[C@@H](NC(=O)[C@H](Cc1ccccc1)NC(=O)[C@@H](NC(=O)CNC(=O)[C@H](Cc1c[nH]cn1)NC(=O)[C@H](CO)NC(=O)[C@@H](N)Cc1ccc(O)cc1)[C@@H](C)O)[C@@H](C)O)C(=O)N[C@@H](CC(=O)O)C(=O)N[C@@H](CCCCNC(=O)CC[C@H](NC(=O)CC[C@H](NC(=O)COCCOCCNC(=O)CCCCCCCCCCCCCCCCCCC(=O)O)C(=O)O)C(=O)O)C(=O)N[C@@H](CCCCN)C(=O)N[C@@H](Cc1ccc(O)cc1)C(=O)N[C@@H](C)C(=O)N[C@@H](CCC(N)=O)C(=O)N[C@@H](CCC(=O)O)C(=O)N[C@@H](Cc1ccccc1)C(=O)N[C@H](C(=O)NC(C)(C)C(=O)N[C@@H](Cc1c[nH]c2ccccc12)C(=O)N[C@@H](CC(C)C)C(=O)N[C@@H](CCC(=O)O)C(=O)N[C@@H](CCC(N)=O)C(=O)N[C@@H](CCC(=O)O)C(=O)N1CCC[C@H]1C(=O)N[C@@H](CO)C(=O)N[C@@H](CO)C(=O)NCC(=O)N[C@@H](C)C(=O)N1CCC[C@H]1C(=O)N1CCC[C@H]1C(=O)N1CCC[C@H]1C(=O)N[C@@H](CO)C(=O)O)C(C)C [Compound A17] (H-YSHGTFTSDYSKYLDK([γGlu-γGlu-AEEA-C20 diacid])KYAQEFV[Aib]WLEQEPSSGAPPPS-OH; N-terminus assumed),> 1
4,CC(C)C[C@H](NC(=O)[C@H](Cc1ccc(O)cc1)NC(=O)[C@H](CCCCN)NC(=O)[C@H](CO)NC(=O)[C@H](Cc1ccc(O)cc1)NC(=O)[C@H](CC(=O)O)NC(=O)[C@H](CO)NC(=O)[C@@H](NC(=O)[C@H](Cc1ccccc1)NC(=O)[C@@H](NC(=O)CNC(=O)[C@H](Cc1c[nH]cn1)NC(=O)[C@H](CO)NC(=O)[C@@H](N)Cc1ccc(O)cc1)[C@@H](C)O)[C@@H](C)O)C(=O)N[C@@H](CC(=O)O)C(=O)N[C@@H](CCCCNC(=O)CC[C@H](NC(=O)CC[C@H](NC(=O)COCCOCCNC(=O)CCCCCCCCCCCCCCCCCCC(=O)O)C(=O)O)C(=O)O)C(=O)N[C@@H](CCCCN)C(=O)N[C@@H](Cc1ccc(O)cc1)C(=O)N[C@@H](C)C(=O)N[C@@H](CCC(N)=O)C(=O)N[C@@H](CCC(=O)O)C(=O)N[C@@H](Cc1ccccc1)C(=O)N[C@H](C(=O)NC(C)(C)C(=O)N[C@@H](Cc1c[nH]c2ccccc12)C(=O)N[C@@H](CC(C)C)C(=O)N[C@@H](CCC(=O)O)C(=O)N[C@@H](CO)C(=O)N[C@@H](CCC(=O)O)C(=O)N1CCC[C@H]1C(=O)N[C@@H](CO)C(=O)N[C@@H](CO)C(=O)NCC(=O)N[C@@H](C)C(=O)N1CCC[C@H]1C(=O)N1CCC[C@H]1C(=O)N1CCC[C@H]1C(=O)N[C@@H](CO)C(=O)O)C(C)C [Compound A19] (H-YSHGTFTSDYSKYLDK([γGlu-γGlu-AEEA-C20 diacid])KYAQEFV[Aib]WLESEPSSGAPPPS-OH),> 1
5,CC(C)C[C@H](NC(=O)[C@H](Cc1ccc(O)cc1)NC(=O)[C@H](CCCCN)NC(=O)[C@H](CO)NC(=O)[C@H](Cc1ccc(O)cc1)NC(=O)[C@H](CC(=O)O)NC(=O)[C@H](CO)NC(=O)[C@@H](NC(=O)[C@H](Cc1ccccc1)NC(=O)[C@@H](NC(=O)CNC(=O)[C@H](Cc1c[nH]cn1)NC(=O)[C@H](CO)NC(=O)[C@@H](N)Cc1ccc(O)cc1)[C@@H](C)O)[C@@H](C)O)C(=O)N[C@@H](CC(=O)O)C(=O)N[C@@H](CCCCNC(=O)CC[C@H](NC(=O)CC[C@H](NC(=O)COCCOCCNC(=O)CCCCCCCCCCCCCCCCCCC(=O)O)C(=O)O)C(=O)O)C(=O)N[C@@H](CCCCN)C(=O)N[C@@H](Cc1ccc(O)cc1)C(=O)N[C@@H](C)C(=O)N[C@@H](CCC(N)=O)C(=O)N[C@@H](CCC(=O)O)C(=O)N[C@@H](Cc1ccccc1)C(=O)N[C@H](C(=O)NC(C)(C)C(=O)N[C@@H](Cc1c[nH]c2ccccc12)C(=O)N[C@@H](CC(C)C)C(=O)N[C@@H](CCC(=O)O)C(=O)N[C@@H](CCCCN)C(=O)N[C@@H](CCC(=O)O)C(=O)N1CCC[C@H]1C(=O)N[C@@H](CO)C(=O)N[C@@H](CO)C(=O)NCC(=O)N[C@@H](C)C(=O)N1CCC[C@H]1C(=O)N1CCC[C@H]1C(=O)N1CCC[C@H]1C(=O)N[C@@H](CO)C(=O)O)C(C)C [Compound A20] (H-YSHGTFTSDYSKYLDK([γGlu-γGlu-AEEA-C20 diacid])KYAQEFV[Aib]WLEKEPSSGAPPPS-OH; N-terminus assumed),> 1
6,CC(C)C[C@H](NC(=O)[C@H](Cc1ccc(O)cc1)NC(=O)[C@H](CCCCN)NC(=O)[C@H](CO)NC(=O)[C@H](Cc1ccc(O)cc1)NC(=O)[C@H](CC(=O)O)NC(=O)[C@H](CO)NC(=O)[C@@H](NC(=O)[C@H](Cc1ccccc1)NC(=O)[C@@H](NC(=O)CNC(=O)[C@H](Cc1c[nH]cn1)NC(=O)[C@H](CO)NC(=O)[C@@H](N)Cc1ccc(O)cc1)[C@@H](C)O)[C@@H](C)O)C(=O)N[C@@H](CC(=O)O)C(=O)N[C@@H](CCCCNC(=O)CC[C@H](NC(=O)CC[C@H](NC(=O)COCCOCCNC(=O)CCCCCCCCCCCCCCCCCCC(=O)O)C(=O)O)C(=O)O)C(=O)N[C@@H](CCCCN)C(=O)N[C@@H](Cc1ccc(O)cc1)C(=O)N[C@@H](C)C(=O)N[C@H]1CCC(=O)NCCCC[C@@H](C(=O)N[C@@H](Cc2c[nH]c3ccccc23)C(=O)N[C@@H](CC(C)C)C(=O)N[C@@H](CCC(=O)O)C(=O)N[C@@H](CC(=O)O)C(=O)N[C@@H](CCC(=O)O)C(=O)N2CCC[C@H]2C(=O)N[C@@H](CO)C(=O)N[C@@H](CO)C(=O)NCC(=O)N[C@@H](C)C(=O)N2CCC[C@H]2C(=O)N2CCC[C@H]2C(=O)N2CCC[C@H]2C(=O)N[C@@H](CO)C(=O)O)NC(=O)[C@H](C(C)C)NC(=O)[C@H](Cc2ccccc2)NC(=O)[C@H](CCCCN)NC1=O [Compound A21] (H-YSHGTFTSDYSKYLDK([γGlu-γGlu-AEEA-C20 diacid])KYAEKFVKWLEDEPSSGAPPPS-OH; lactam 20-24; N-terminus assumed),> 1

# From patent US20240228572A1 (i2o Therapeutics, Inc., priority 2020, published 2024)
